Legend:
Assay type in all cases: in vivo
[1] = test system: Cyperus iria; assay: Field test with Bensulfuron methyl in direct seeded rice (Table 10); details: 20 GAI/HA; 10 = complete control
Text: (§1) Methyl 2-[[[[(4-methoxy-6-methyl-1,3,5-triazin-2-yl)amino]carbonyl]amino]sulfonyl]benzoate (Compound 1) and mixtures thereof with other compounds were applied as a spray (using a hand sprayer) to rice (either transplanted or direct seeded) in several rice growing areas in Southeast Asia and in the U.S. Tables 1-28 contain the results of these tests and clearly exemplify the utility of this invention. The details of each application are included in the appropriate table. [drawing 2]

[2] = test system: Marsilea crenata; assay: as above; details: 10 = complete control
Text: as §1

[3] = test system: direct seeded rice; assay: Field test with Bensulfuron methyl in direct seeded rice, yield (Table 10)
Text: as §1

[4] = test system: Sphenoclea zeylanica; assay: Field test applied at 25 DAS in direct seeded rice (Table 13); details: scale 0-10
Text: as §1

[5] = test system: Cyperus iria; assay: as above; details: scale 0-10
Text: as §1

[6] = test system: Ludwigia linifolia; assay: Herbicidal efficacy with Bensulfuron methyl and 2,4-D in Thailand (Table 20); details: 14 days after treatment
Text: as §1

[7] = test system: Sphenoclea zeylanica; assay: as above; details: 14 days after treatment
Text: as §1

[8] = test system: Cuperus iria; assay: as above; details: 14 days after treatment
Text: as §1

[9] = test system: rice; assay: as above; details: 14 days after treatment
Text: as §1

[10] = test system: FIMBRISTYLIS MILIACEA; assay: as above; details: 14 days after treatment
Text: as §1

[11] = test system: Sphenoclea zeylanica; assay: Field test applied at 18 DAS in direct seeded rice (Table 12); details: scale 0-10
Text: as §1

[12] = test system: Cyperus iria; assay: as above; details: scale 0-10
Text: as §1

[13] = test system: Jussiaea linifolia; assay: as above; details: scale 0-10
Text: as §1

[14] = test system: FIMBRISTYLIS MILIACEA; assay: as above; details: scale 0-10
Text: as §1

[15] = test system: SEDGE; assay: Field test applied 7 DAS in direct seeded rice in the Philippines, cover (Table 14); details: 47 DAA
Text: as §1

[16] = test system: Barnyardgrass (Echinochloa crus-galli); assay: as above; details: 47 DAA
Text: as §1

[17] = test system: Sphenoclea zeylanica; assay: Herbicidal efficacy with Bensulfuron methyl and 2,4-D in Thailand (Table 18); details: 13 days after treatment
Text: as §1

[18] = test system: rice; assay: as above; details: 13 days after treatment
Text: as §1

[19] = test system: Cyperus difformis; assay: as above; details: 13 days after treatment
Text: as §1

## COC(=O)c1ccccc1CS(=O)(=O)NC(=O)Nc1nc(OC)cc(OC)n1 [Bensulfuron methyl, methyl 2-[[[[[(4,6-dimethoxy-2-pyrimidinyl)amino]carbonyl]amino]sulfonyl]methyl]benzoate]
[1]
  WEEDS CONTROL at 4 WAA CI: 8
[2]; 10 GAI/HA
  WEEDS CONTROL at 4 WAA MC: 0
[2]; 20 GAI/HA
  WEEDS CONTROL at 4 WAA MC: 3.33
[3]; 10 GAI/HA
  YIELD: 3.04 TONS/HA
[3]; 20 GAI/HA
  YIELD: 3.34 TONS/HA
[4]; 10 GM.A.I./HA
  WEED CONTROL at 6 WAA SZ: 9.17
[4]; 15 GM.A.I./HA
  WEED CONTROL at 6 WAA SZ: 9.80
[4]; 20 GM.A.I./HA
  WEED CONTROL at 6 WAA SZ: 9.50
[4]; 30 GM.A.I./HA
  WEED CONTROL at 6 WAA SZ: 9.93
[5]; 10 GM.A.I./HA
  WEED CONTROL at 6 WAA CI: 9.67
[5]; 15 GM.A.I./HA
  WEED CONTROL at 6 WAA CI: 9.83
[5]; 20 GM.A.I./HA
  WEED CONTROL at 6 WAA CI: 10
[5]; 30 GM.A.I./HA
  WEED CONTROL at 6 WAA CI: 10
[6]; 10 GAI/HA
  % CONTROL OR INJURY LL: 80%
[6]; 15 GAI/HA
  % CONTROL OR INJURY LL: 80%
[6]; 20 GAI/HA
  % CONTROL OR INJURY LL: 87%
[7]; 10 GAI/HA
  % CONTROL OR INJURY SZ: 23%
[7]; 15 GAI/HA
  % CONTROL OR INJURY SZ: 60%
[7]; 20 GAI/HA
  % CONTROL OR INJURY SZ: 53%
[8]; 10 GAI/HA
  % CONTROL OR INJURY CI: 77%
[8]; 15 GAI/HA
  % CONTROL OR INJURY CI: 90%
[8]; 20 GAI/HA
  % CONTROL OR INJURY CI: 95%
[9]; 10 GAI/HA
  % CONTROL OR INJURY RICE: 0%
[9]; 15 GAI/HA
  % CONTROL OR INJURY RICE: 0%
[9]; 20 GAI/HA
  % CONTROL OR INJURY RICE: 0%
[10]; 10 GAI/HA
  % CONTROL OR INJURY FM: 80%
[10]; 15 GAI/HA
  % CONTROL OR INJURY FM: 100%
[10]; 20 GAI/HA
  % CONTROL OR INJURY FM: 100%
[11]; 10 GM.A.I./HA
  WEED CONTROL at 6 WAA SZ: 5.67
[11]; 15 GM.A.I./HA
  WEED CONTROL at 6 WAA SZ: 6.67
[11]; 20 GM.A.I./HA
  WEED CONTROL at 6 WAA SZ: 5.67
[11]; 30 GM.A.I./HA
  WEED CONTROL at 6 WAA SZ: 9.67
[12]; 10 GM.A.I./HA
  WEED CONTROL at 6 WAA CI: 6.67
[12]; 15 GM.A.I./HA
  WEED CONTROL at 6 WAA CI: 9.0
[12]; 20 GM.A.I./HA
  WEED CONTROL at 6 WAA CI: 9.33
[12]; 30 GM.A.I./HA
  WEED CONTROL at 6 WAA CI: 9.67
[13]; 10 GM.A.I./HA
  WEED CONTROL at 6 WAA JL: 8.0
[13]; 15 GM.A.I./HA
  WEED CONTROL at 6 WAA JL: 7.67
[13]; 20 GM.A.I./HA
  WEED CONTROL at 6 WAA JL: 9.50
[13]; 30 GM.A.I./HA
  WEED CONTROL at 6 WAA JL: 8.67
[14]; 10 GM.A.I./HA
  WEED CONTROL at 6 WAA FM: 10
[14]; 15 GM.A.I./HA
  WEED CONTROL at 6 WAA FM: 9.67
[14]; 20 GM.A.I./HA
  WEED CONTROL at 6 WAA FM: 10
[14]; 30 GM.A.I./HA
  WEED CONTROL at 6 WAA FM: 10
[15]; 8.25 G AI/HA
  % SEDGE COVER: 4%
[15]; 12.0 G AI/HA
  % SEDGE COVER: 2%
[15]; 16.50 G AI/HA
  % SEDGE COVER: 2%
[16]; 8.25 G AI/HA
  % BYG COVER: 29%
[16]; 12.0 G AI/HA
  % BYG COVER: 17%
[16]; 16.50 G AI/HA
  % BYG COVER: 28%
[17]; 10 GAI/HA
  % CONTROL OR INJURY SZ: 99%
[17]; 15 GAI/HA
  % CONTROL OR INJURY SZ: 100%
[17]; 20 GAI/HA
  % CONTROL OR INJURY SZ: 100%
[18]; 10 GAI/HA
  % CONTROL OR INJURY RICE: 0%
[18]; 15 GAI/HA
  % CONTROL OR INJURY RICE: 0%
[18]; 20 GAI/HA
  % CONTROL OR INJURY RICE: 0%
[19]; 10 GAI/HA
  % CONTROL OR INJURY CD: 100%
[19]; 15 GAI/HA
  % CONTROL OR INJURY CD: 100%
[19]; 20 GAI/HA
  % CONTROL OR INJURY CD: 100%
